In patent US20040029186A1, “Methods” (priority 2000, published 2004):

Target: T1, α4β1 integrin (Homo sapiens, UniProt P05556+P13612)
T1 construct: endogenous in cells; host or cells: cells of heparinised human whole blood
Test: Human whole blood cell adhesion to VCAM-1 coated magnetic beads, in vitro
Assay type: cell-based
Conditions: 1 mM manganese chloride, 1 h room temperature, control samples without antibody
Experimental: Whole human or animal blood (e.g. rat, mouse, dog), was collected into sodium heparin (10 Units/ml blood).
487.5 μl aliquots of heparinised naive human or animal whole blood were dispensed into reaction tubes containing 7.5 μl biotinylated VCAM beads and either 5 μl of a solution of a compound believed to be an α4β1 integrin inhibitor or, as a control, 5 μl of the solvent used to dissolve the compound and either with or without 2 μl anti-α4 antibody. […]
After this time the wash procedure with chilled PBS was carried out three times before the addition of 130 μl per well of 2% Triton X-100 (Sigma T-9284) in distilled water to lyse the cells adhering to the beads. The beads were once again captured by the Dynal MPC® magnet, 100 μl aliquots of the solution from each well was transferred to a clean 96 well flat-bottomed plate and the fluorescence of each well measured using an Fmax fluorimeter (Molecular Devices, Crawley, West Sussex), excitation 485 nm, emission 538 nm. […]
The tubes were rotated on a windmill mixer for 2 h at 4° C. before addition of 500 μl ice cold PBS and placing on a Dynal MPC® magnet for 10 min to recover the beads. […] The fluorescence of each well was measured using a fluorimeter, excitation 485 nm, emission 538 nm. Results were expressed as a percentage of the fluorescence in control samples containing no antibody. […]

T1 sequence (P13612 34-1032): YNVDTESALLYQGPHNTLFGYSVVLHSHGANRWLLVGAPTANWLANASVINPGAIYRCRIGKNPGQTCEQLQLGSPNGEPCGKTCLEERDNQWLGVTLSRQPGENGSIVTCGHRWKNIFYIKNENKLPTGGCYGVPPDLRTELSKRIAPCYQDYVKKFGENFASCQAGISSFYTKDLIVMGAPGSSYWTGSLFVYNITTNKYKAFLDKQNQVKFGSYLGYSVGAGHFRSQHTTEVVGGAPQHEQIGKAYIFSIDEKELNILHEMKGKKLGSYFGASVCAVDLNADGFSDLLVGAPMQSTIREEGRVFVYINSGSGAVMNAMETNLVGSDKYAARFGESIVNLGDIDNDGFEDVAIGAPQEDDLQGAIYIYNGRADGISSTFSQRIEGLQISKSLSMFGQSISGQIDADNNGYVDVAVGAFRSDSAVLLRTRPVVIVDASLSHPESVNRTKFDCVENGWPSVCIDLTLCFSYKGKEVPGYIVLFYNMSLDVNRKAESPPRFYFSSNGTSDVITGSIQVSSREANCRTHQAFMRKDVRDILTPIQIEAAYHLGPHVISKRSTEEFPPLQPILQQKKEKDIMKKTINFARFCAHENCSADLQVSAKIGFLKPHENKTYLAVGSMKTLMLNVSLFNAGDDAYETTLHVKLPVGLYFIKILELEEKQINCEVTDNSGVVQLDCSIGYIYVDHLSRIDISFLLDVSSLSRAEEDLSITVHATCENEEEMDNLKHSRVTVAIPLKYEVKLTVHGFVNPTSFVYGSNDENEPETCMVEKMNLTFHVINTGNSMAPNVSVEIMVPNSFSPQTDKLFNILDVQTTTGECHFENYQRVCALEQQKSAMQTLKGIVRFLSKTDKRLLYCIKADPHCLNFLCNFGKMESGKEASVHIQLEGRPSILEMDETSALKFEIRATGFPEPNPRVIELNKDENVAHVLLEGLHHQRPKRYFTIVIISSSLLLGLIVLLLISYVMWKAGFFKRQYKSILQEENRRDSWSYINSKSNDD
T1 sequence (P05556 21-798): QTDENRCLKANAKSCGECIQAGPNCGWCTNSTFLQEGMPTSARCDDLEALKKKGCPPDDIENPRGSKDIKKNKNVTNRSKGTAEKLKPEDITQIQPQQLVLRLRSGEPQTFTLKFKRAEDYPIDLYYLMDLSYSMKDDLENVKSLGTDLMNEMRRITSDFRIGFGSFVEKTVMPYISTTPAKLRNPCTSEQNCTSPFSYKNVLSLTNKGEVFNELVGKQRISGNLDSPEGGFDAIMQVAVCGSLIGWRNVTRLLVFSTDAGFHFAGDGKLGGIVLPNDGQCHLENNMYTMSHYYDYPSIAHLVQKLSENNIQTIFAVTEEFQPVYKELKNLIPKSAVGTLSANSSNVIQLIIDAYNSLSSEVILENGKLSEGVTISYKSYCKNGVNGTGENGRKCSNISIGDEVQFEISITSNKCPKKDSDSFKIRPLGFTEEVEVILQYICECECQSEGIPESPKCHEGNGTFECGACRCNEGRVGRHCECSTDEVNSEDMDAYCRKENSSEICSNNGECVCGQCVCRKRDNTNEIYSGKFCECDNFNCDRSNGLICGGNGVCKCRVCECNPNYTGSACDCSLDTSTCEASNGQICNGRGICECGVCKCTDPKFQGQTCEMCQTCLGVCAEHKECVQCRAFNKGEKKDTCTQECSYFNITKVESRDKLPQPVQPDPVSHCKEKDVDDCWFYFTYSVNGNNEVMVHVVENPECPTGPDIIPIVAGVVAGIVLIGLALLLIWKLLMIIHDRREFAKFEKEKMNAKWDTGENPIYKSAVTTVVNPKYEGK

Manganese chloride [Mn^2+]
increase of whole blood cell adhesion to VCAM-1 coated beads: approximately 2 fold
